# Measurements published in article PMC8921064 (Archives of Toxicology, 2022).
# Read-outs that look alike come from different tables or passages of the source.
# Assays:
# mouse skin = test system: mouse skin; parameters: method as in Buening et al. [1979]; LaVoie et al. [1981]; details: mouse skin painting; ref Buening et al. [1979]; LaVoie et al. [1981]; cited from earlier work
# [1] = test system: rat liver microsomes (RLM); experiment: Rat liver microsomal incubation, metabolite formation quantified by UPLC; details: RLM
# Method: (§1) The incubation mixtures were prepared and incubated in glass vials to avoid plastic binding of the substrates. The glass vials were capped to prevent substrate loss due to volatility. After preincubation of the incubation mixture at 37 °C for 1 min, the enzymatic reaction was initiated by adding microsomes to the incubation mixture which was subsequently incubated at 37 °C for 20 min. The reaction was terminated by adding 100 µl ice-cold acetonitrile followed by vortexing. After 5 min centrifugation at 5000 rpm (4000 × g), 4 °C, the supernatant was collected for ultraperformance liquid chromatography (UPLC) analysis. […] Therefore, a diisopropylether (DIPE) extraction of the metabolites was performed after the reaction was stopped by the addition of 20 µl 10% HClO4. To this end, the incubation mixture (total volume of 220 µl) was extracted three times with 1 ml DIPE. Each time, the upper organic layer was collected and the DIPE was subsequently evaporated from the combined organic fractions with a gentle stream of nitrogen. The residues were dissolved in 100 µl methanol and analyzed by UPLC.
# (§2) The metabolites formed were analyzed and quantified using an Acquity UPLC system equipped with a photodiode array (PDA) detector (Waters, Milford, MA). The metabolites and their parent compound were separated on a reverse phase Acquity UPLC® BEH C18 column ([…], 1.7 µm, Waters, Milford, MA) and detected at wavelengths ranging from 190 to 400 nm. Eluent A was nano-pure water containing 0.1% trifluoroacetic acid (v/v), and eluent B was acetonitrile containing 0.1% trifluoroacetic acid (v/v). The gradient elution started from 90% A and 10% B applied from 0.0 min to 0.5 min, which was changed to 0% A and 100% B from 0.5 to 15.5 min and then kept at 0% A and 100% B from 15.5 min to 18.5 min, changed back to 90% A and 10% B from 18.5 to 18.6 min and then maintained at the starting conditions from 18.6 min until 22 min. The total run time was 22 min using a flow rate of 0.6 ml/min. The temperature of the column was set at 40 °C and that of the autosampler at 10 °C during the UPLC analysis. The injection volume was 3.5 µl. Metabolites were quantified using their peak area at the wavelength specified in Table 1, using calibration curves of available reference compounds. Metabolites were identified by comparing their retention time (RT) and UV spectrum to those of reference chemicals on UPLC. When reference chemicals were not available, metabolite identification by gas chromatography-triple quadrupole mass spectrometry (GC–MS/MS) was performed. The minor metabolites were identified by elution time and mass spectra both on UPLC and GC–MS/MS, and by comparison with available elution and spectral information from the literature.
# (§3) The metabolite concentrations in the microsomal incubation mixtures as quantified by UPLC were used to calculate the rate of the enzymatic conversions in pmol/min/mg microsomal protein. The kinetic parameters KM and Vmax were obtained using a nonlinear regression curve fit applying the Michaelis Menten equation in GraphPad Prism 5 (San Diego, USA). To compare the catalytic efficiency of formation of the different metabolites the intrinsic clearance (Clint) was calculated as Vmax divided by KM.
# [2] = test system: human liver microsomes (HLM); experiment: Human liver microsomal incubation, metabolite formation quantified by UPLC; details: HLM
# Method: as §1, §2, §3
# S. typhimurium TA100 = details: cited from earlier work
# S. typhimurium TA98 = details: cited from earlier work
# [3] = test system: Salmonella typhimurium TA100; experiment: Reverse mutation assay (Ames test), TA100; details: for Increase in the number of revertants compared to the concurrent solvent control: TA100, presence of 5% S9-mix, 10–100 µg; for Mutagenicity (conclusion): TA100, positive if more than twofold over control; for His + revertant colonies TA100 without S9-mix: mean ± SD of 3 plates; for Cytotoxicity at the test doses: TA100, absence of S9 mix
# Method: (§4) Six concentrations of each compound were tested in triplicate in the absence and presence of 5% (v/v) S9-mix prepared from the livers of Aroclor 1254 treated Sprague–Dawley rats. The S9-mix contained 4 mM NADP, 5.8 mM glucose-6-phosphate, 0.1 M sodium phosphate pH 7.4, 8 mM MgCl2, 33 mM KCl and 5% S9 homogenate. Fresh bacterial cultures were prepared overnight to reach 10^9 cells/ml. The following solutions were pre-incubated in a rotating incubator at 70 rpm and 37 °C, and contained either 0.5 ml S9-mix (in case of S9 presence) or 0.5 ml 0.1 M potassium phosphate pH 7.4 (in case of S9 absence), 0.1 ml of a fresh bacterial culture (10^9 cells/ml) of TA98 or TA100, and 10–100 µg test compound. Top agar was melted and heated to 45 °C. After preincubation, the substrate solutions were added to 3 ml of the molten top agar and mixed by vortexing and the top agar mixture was poured onto a minimal glucose agar plate. After solidification of the top agar, the plates were incubated at 37 °C for 48 h. The number of revertant colonies per plate was automatically counted with the Instem Sorcerer Colony Counter (Staffordshire, UK). In the absence of S9-mix, 2-nitrofluorene (NF) and methylmethanesulfonate (MMS) were tested as positive controls for incubations with TA98 and TA100, respectively. In the presence of S9-mix, 2-aminoanthracene (2AA) was tested as a positive control in both TA98 and TA100. DMSO was tested as a solvent control in both tester strains.
# [4] = test system: Salmonella typhimurium TA98; experiment: Reverse mutation assay (Ames test), TA98; details: for Increase in the number of revertants compared to the concurrent solvent control: TA98, presence of 5% S9-mix, 10–100 µg; for Mutagenicity (conclusion): TA98, positive if more than threefold over control; for His + revertant colonies TA98 without S9-mix: mean ± SD of 3 plates
# Method: as §4, with “and 10–100 µg test compound.” left out
# [5] = ref Katarzyna Rudnicka et al. [2013]
compound,measurement,setting,value
Cc1cccc2c1ccc1ccccc12 [1-Methylphenanthrene],Tumor-initiating activity,mouse skin,neither phenanthrene nor its monomethylated analogs
same,"Vmax, formation of 1-(Hydroxymethyl) phennathrene RT = 5.55 min",[1]; substrate 1-Methylphenanthrene,1926 ± 40.3 pmol/min/mg microsomal protein
same,"Vmax, formation of 1-Methylphenanthrol RT = 6.80 min",[1]; substrate 1-Methylphenanthrene,33.1 ± 2.1 pmol/min/mg microsomal protein
same,"Vmax, formation of 1-Methylphenanthrol RT = 6.92 min",[1]; substrate 1-Methylphenanthrene,24.0 ± 1.6 pmol/min/mg microsomal protein
same,"Vmax, formation of 1-Methylphenanthrol RT = 7.00 min",[1]; substrate 1-Methylphenanthrene,17.3 ± 1.2 pmol/min/mg microsomal protein
same,"Vmax, formation of 1-Methylphenanthrol RT = 7.29 min",[1]; substrate 1-Methylphenanthrene,9.0 ± 0.8 pmol/min/mg microsomal protein
same,"Vmax, formation of Dihydro-1-methylphenanthrene-diol RT = 3.43 min",[1]; substrate 1-Methylphenanthrene,4.2 ± 0.4 pmol/min/mg microsomal protein
same,"Vmax, formation of Dihydro-1-methylphenanthrene-diol RT = 3.96 min",[1]; substrate 1-Methylphenanthrene,5.2 ± 0.3 pmol/min/mg microsomal protein
same,"Vmax, formation of Dihydro-1-methylphenanthrene-diol RT = 4.35 min",[1]; substrate 1-Methylphenanthrene,16.1 ± 1.3 pmol/min/mg microsomal protein
same,"Vmax, formation of Dihydro-1-methylphenanthrene-diol RT = 4.76 min",[1]; substrate 1-Methylphenanthrene,14.0 ± 0.6 pmol/min/mg microsomal protein
same,"Vmax, formation of 1-(Hydroxymethyl) phennathrene RT = 5.55 min",[2]; substrate 1-Methylphenanthrene,475.3 ± 13.2 pmol/min/mg microsomal protein
same,"Vmax, formation of 1-Methylphenanthrol RT = 6.3 min",[2]; substrate 1-Methylphenanthrene,14.7 ± 0.8 pmol/min/mg microsomal protein
same,"Vmax, formation of 1-Methylphenanthrol RT = 6.80 min",[2]; substrate 1-Methylphenanthrene,77.3 ± 3.9 pmol/min/mg microsomal protein
same,"Vmax, formation of Dihydro-1-methylphenanthrene-diol RT = 2.32 min",[2]; substrate 1-Methylphenanthrene,27.5 ± 4.6 pmol/min/mg microsomal protein
same,"Vmax, formation of Dihydro-1-methylphenanthrene-diol RT = 4.35 min",[2]; substrate 1-Methylphenanthrene,20.6 ± 0.5 pmol/min/mg microsomal protein
same,Increase in revertants,S. typhimurium TA100; [5],4.1 fold
same,Increase in revertants,S. typhimurium TA100; ref LaVoie et al. [1983],6.0 fold
same,Increase in revertants,S. typhimurium TA98; [5],8.4 fold
same,Increase in revertants,S. typhimurium TA98; ref LaVoie et al. [1983],3.2 fold
same,Increase in the number of revertants compared to the concurrent solvent control,[3],≤ 6.8 fold
same,Mutagenicity (conclusion),[3],showed mutagenicity
same,Increase in the number of revertants compared to the concurrent solvent control,[4],up to 13 fold
same,Mutagenicity (conclusion),[4],showed mutagenicity
Cc1ccc2c(ccc3ccccc32)c1 [2-Methylphenanthrene],Tumor-initiating activity,mouse skin,neither phenanthrene nor its monomethylated analogs
same,"Vmax, formation of 2-(Hydroxymethyl)-phennathrene RT = 5.59 min",[1]; substrate 2-Methylphenanthrene,2174 ± 115.3 pmol/min/mg microsomal protein
same,"Vmax, formation of 2-Methylphenanthrol RT = 6.98 min",[1]; substrate 2-Methylphenanthrene,76.0 ± 3.1 pmol/min/mg microsomal protein
same,"Vmax, formation of 2-Methylphenanthrol RT = 7.08 min",[1]; substrate 2-Methylphenanthrene,11.2 ± 0.9 pmol/min/mg microsomal protein
same,"Vmax, formation of Dihydro-2-methylphenanthrene-diol RT = 4.26 min",[1]; substrate 2-Methylphenanthrene,23.1 ± 2.7 pmol/min/mg microsomal protein
same,"Vmax, formation of Dihydro-2-methylphenanthrene-diol RT = 4.42 min",[1]; substrate 2-Methylphenanthrene,16.2 ± 2.5 pmol/min/mg microsomal protein
same,"Vmax, formation of 2-Methylphenanthrol RT = 6.12 min","[1]; substrate 2-Methylphenanthrene, KM NA",90.7 ± 3.8 pmol/min/mg microsomal protein
same,"Vmax, formation of 2-(Hydroxymethyl)-phennathrene RT = 5.59 min",[2]; substrate 2-Methylphenanthrene,562.0 ± 27.5 pmol/min/mg microsomal protein
same,"Vmax, formation of 2-Methylphenanthrol RT = 6.12 min",[2]; substrate 2-Methylphenanthrene,16.3 ± 0.8 pmol/min/mg microsomal protein
same,"Vmax, formation of Dihydro-2-methylphenanthrene-diol RT = 3.09 min",[2]; substrate 2-Methylphenanthrene,6.4 ± 0.5 pmol/min/mg microsomal protein
same,His + revertant colonies TA100 without S9-mix,[3]; 10 µg/plate,106±20
same,His + revertant colonies TA100 without S9-mix,[3]; 20 µg/plate,98±13
same,His + revertant colonies TA100 without S9-mix,[3]; 40 µg/plate,70±8
same,Cytotoxicity at the test doses,[3],showed cytotoxicity
same,Increase in the number of revertants compared to the concurrent solvent control,[3],no increased response was found
same,Mutagenicity (conclusion),[3],non-mutagenic
same,Increase in the number of revertants compared to the concurrent solvent control,[4],2.2 fold
same,Mutagenicity (conclusion),[4],non-mutagenic
Cc1ccc2ccc3ccccc3c2c1 [3-Methylphenanthrene],Tumor-initiating activity,mouse skin,neither phenanthrene nor its monomethylated analogs
same,"Vmax, formation of 3-(Hydroxymethyl)-phenanthrene RT = 5.62 min",[1]; substrate 3-Methylphenanthrene,2593 ± 305 pmol/min/mg microsomal protein
same,"Vmax, formation of 3-Methylphennathrol RT = 6.98 min",[1]; substrate 3-Methylphenanthrene,82.6 ± 53.8 pmol/min/mg microsomal protein
same,"Vmax, formation of Dihydro-3-methylphenanthrene-diol RT = 4.25 min",[1]; substrate 3-Methylphenanthrene,92.3 ± 25.1 pmol/min/mg microsomal protein
same,"Vmax, formation of Dihydro-3-methylphenanthrene-diol RT = 4.42 min",[1]; substrate 3-Methylphenanthrene,20.4 ± 1.7 pmol/min/mg microsomal protein
same,"Vmax, formation of 3-(Hydroxymethyl)-phenanthrene RT = 5.62 min",[2]; substrate 3-Methylphenanthrene,583.8 ± 19.6 pmol/min/mg microsomal protein
same,"Vmax, formation of Dihydro-3-methylphenanthrene-diol RT = 4.25 min",[2]; substrate 3-Methylphenanthrene,65.0 ± 4.1 pmol/min/mg microsomal protein
same,"Vmax, formation of Dihydro-3-methylphenanthrene-diol RT = 4.42 min",[2]; substrate 3-Methylphenanthrene,12.8 ± 0.8 pmol/min/mg microsomal protein
same,His + revertant colonies TA100 without S9-mix,[3]; 2 µg/plate,112±14
same,His + revertant colonies TA100 without S9-mix,[3]; 4 µg/plate,112±9
same,His + revertant colonies TA100 without S9-mix,[3]; 10 µg/plate,119±11
same,His + revertant colonies TA100 without S9-mix,[3]; 20 µg/plate,83±34
same,His + revertant colonies TA100 without S9-mix,[3]; 40 µg/plate,75±4
same,Cytotoxicity at the test doses,[3],showed cytotoxicity
same,Increase in the number of revertants compared to the concurrent solvent control,[3],no increased response was found
same,Mutagenicity (conclusion),[3],non-mutagenic
same,His + revertant colonies TA98 without S9-mix,[4]; 2 µg/plate,16±3
same,His + revertant colonies TA98 without S9-mix,[4]; 4 µg/plate,17±4
same,His + revertant colonies TA98 without S9-mix,[4]; 10 µg/plate,14±1
same,His + revertant colonies TA98 without S9-mix,[4]; 20 µg/plate,13±2
same,His + revertant colonies TA98 without S9-mix,[4]; 40 µg/plate,9±4
same,Cytotoxicity at the test doses,"[4]; TA98, absence of S9 mix",showed cytotoxicity
same,Increase in the number of revertants compared to the concurrent solvent control,[4],2.2 fold
same,Mutagenicity (conclusion),[4],non-mutagenic
same,Bacterial background lawn,"[4]; TA98 without S9-mix, 40 µg/plate",S
